From US6982348B2, “Aminoethanol derivatives” (Takeda Pharmaceutical Company Limited, priority 2001, dated 2006)
Structures can show the parent of a compound that is named as a salt.

SMILES	melting point [°C]
O=C(CCCc1cccs1)NC(Cc1ccc(C(F)(F)F)cc1)C(O)c1ccc(F)cc1 (racemic) [Example 4, N-(2-(4-fluorophenyl)-2-hydroxy-1-((4-(trifluoromethyl)phenyl)methyl)ethyl)-4-(2-thienyl)butyramide]	123 to 124
O=C(NC(Cc1ccc(C(F)(F)F)cc1)C(O)c1ccc(F)cc1)C1CCCC1 (racemic) [Example 5, N-[2-(4-fluorophenyl)-2-hydroxy-1-[[4-(trifluoromethyl)phenyl]methyl]ethyl]cyclopentanecarboxamide]	139 to 155
O=C(NC(Cc1ccc(C(F)(F)F)cc1)C(O)c1ccc(F)cc1)C1CCCCC1 (racemic) [Example 8, N-[2-(4-fluorophenyl)-2-hydroxy-1-[[4-(trifluoromethyl)phenyl]methyl]ethyl]cyclohexanecarboxamide]	161 to 178
O=C(NC(Cc1ccc(C(F)(F)F)cc1)C(O)c1ccc(F)cc1)c1cccs1 (racemic) [Example 11, N-[2-(4-fluorophenyl)-2-hydroxy-1-[[4-(trifluoromethyl)phenyl]methyl]ethyl]-2-thiophenecarboxamide]	135 to 164
O=C(NC(Cc1ccc(C(F)(F)F)cc1)C(O)c1ccc(F)cc1)c1ccc(C(F)(F)F)cc1 (racemic) [Example 12, N-[2-(4-fluorophenyl)-2-hydroxy-1-[[4-(trifluoromethyl)phenyl]methyl]ethyl]-4-(trifluoromethyl)benzamide]	167 to 169
CCCCc1ccc(C(=O)NC(Cc2ccc(C(F)(F)F)cc2)C(O)c2ccc(F)cc2)cc1 (racemic) [Example 13, 4-butyl-N-[2-(4-fluorophenyl)-2-hydroxy-1-[[4-(trifluoromethyl)phenyl]methyl]ethyl]benzamide]	138 to 158
O=C(NC(Cc1ccc(C(F)(F)F)cc1)C(O)c1ccc(F)cc1)C12CC3CC(CC(C3)C1)C2 (racemic) [Example 15, N-[2-(4-fluorophenyl)-2-hydroxy-1-[[4-(trifluoromethyl)phenyl]methyl]ethyl]adamantane-1-carboxamide]	169 to 170
CC(C)(C)C(=O)NC(Cc1ccc(C(F)(F)F)cc1)C(O)c1ccc(F)cc1 (racemic) [Example 16, N-[2-(4-fluorophenyl)-2-hydroxy-1-[[4-(trifluoromethyl)phenyl]methyl]ethyl]-2,2-dimethylpropionamide]	97 to 99
Cc1cc(C)c(C(=O)NC(Cc2ccc(C(F)(F)F)cc2)C(O)c2ccc(F)cc2)c(C)c1 (racemic) [Example 17, N-[2-(4-fluorophenyl)-2-hydroxy-1-[[4-(trifluoromethyl)phenyl]methyl]ethyl]-2,4,6-trimethylbenzamide]	141 to 143
CC(C)(C)c1ccc(C(=O)NC(Cc2ccc(C(F)(F)F)cc2)C(O)c2ccc(F)cc2)cc1 (racemic) [Example 19, 4-tert-butyl-N-[2-(4-fluorophenyl)-2-hydroxy-1-[[4-(trifluoromethyl)phenyl]methyl]ethyl]benzamide]	58
O=C(NC(Cc1ccc(C(F)(F)F)cc1)C(O)c1ccc(F)cc1)c1ccc(-c2ccccc2)cc1 (racemic) [Example 20, N-[2-(4-fluorophenyl)-2-hydroxy-1-[[4-(trifluoromethyl)phenyl]methyl]ethyl]-4-phenylbenzamide]	178 to 185
CC(C)(C)OC(=O)N[C@H](Cc1ccc(C(F)(F)F)cc1)[C@H](O)c1ccc(F)cc1 (racemic) [Example 24, 1,1-dimethylethyl(1RS,2RS)-2-(4-fluorophenyl)-2-hydroxy-1-((4-(trifluoromethyl)phenyl)methyl)ethylcarbamate]	95 to 96
O=C(N[C@H](Cc1ccc(C(F)(F)F)cc1)[C@H](O)c1ccc(F)cc1)c1ccc(C(F)(F)F)cc1 (racemic) [Example 27, N-((1RS,2RS)-2-(4-fluorophenyl)-2-hydroxy-1-((4-(trifluoromethyl)phenyl)methyl)ethyl)-4-(trifluoromethyl)benzamide]	162 to 163
CC(C)(C)OC(=O)N[C@H](Cc1ccc(C(F)(F)F)cc1)[C@@H](O)c1ccc(F)cc1 (racemic) [Example 28, 1,1-dimethylethyl (1RS,2SR)-2-(4-fluorophenyl)-2-hydroxy-1-((4-(trifluoromethyl)phenyl)methyl)ethylcarbamate]	158 to 159

The next lines start with the values.

melting point [°C]	SMILES
170 to 171	COC(=O)CCC(=O)O[C@H](c1ccc(F)cc1)[C@H](Cc1cccc(OC(F)(F)C(F)F)c1)NC(=O)c1cccc2c1C=CCCC2 (racemic) (as salt: succinate) [Example 383, (1RS,2SR)-2-[(6,7-dihydro-5H-benzo[a]cyclohepten-1-ylcarbonyl)amino]-1-(4-fluorophenyl)-3-[3-(1,1,2,2-tetrafluoroethoxy)phenyl]propyl methyl succinate]
154 to 155	O=C(O)CCC(=O)O[C@H](c1ccc(F)cc1)[C@H](Cc1cccc(OC(F)(F)C(F)F)c1)NC(=O)c1cccc2c1C=CCCC2 (racemic) (as salt: succinate) [Example 384, (1RS,2SR)-2-[(6,7-dihydro-5H-benzo[a]cyclohepten-1-ylcarbonyl)amino]-1-(4-fluorophenyl)-3-[3-(1,1,2,2-tetrafluoroethoxy)phenyl]propyl hydrogen succinate]
181 to 182	O=C(O)CCC(=O)O[C@H](c1ccc(F)cc1)[C@H](Cc1cccc(OC(F)(F)C(F)F)c1)NC(=O)c1ccc(F)c2ccccc12 (racemic) (as salt: succinate) [Example 388, (1RS,2SR)-2-[(4-fluoro-1-naphthoyl)amino]-1-(4-fluorophenyl)-3-[3-(1,1,2,2-tetrafluoroethoxy)phenyl]propyl hydrogen succinate]
228 to 229	O=C(O)CCC(=O)O[C@H](c1ccc(F)cc1)[C@H](Cc1ccc(C(F)(F)F)cc1)NC(=O)c1cccc2c(Cl)cccc12 (racemic) (as salt: succinate) [Example 394, (1RS,2SR)-2-[(5-chloro-1-naphthoyl)amino]-1-(4-fluorophenyl)-3-[4-(trifluoromethyl)phenyl]propyl hydrogen succinate]
196 to 197	O=C(O)CCC(=O)O[C@H](c1ccc(F)cc1)[C@H](Cc1ccc2c(c1)OC(F)(F)C(F)(F)O2)NC(=O)c1ccc(F)c2ccccc12 (racemic) (as salt: succinate) [Example 396, (1RS,2SR)-1-(4-fluorophenyl)-2-[(4-fluoro-1-naphthoyl)amino]-3-(2,2,3,3-tetrafluoro-2,3-dihydro-1,4-benzodioxin-6-yl)propyl hydrogen succinate]
159 to 181	O=C(NC(Cc1ccc(C(F)(F)F)cc1)C(O)c1ccc(F)cc1)c1cccc2ccccc12 (racemic) [Example 1, N-[2-(4-fluorophenyl)-2-hydroxy-1-[[4-(trifluoromethyl)phenyl]methyl]ethyl]-1-naphthalenecarboxamide]
149 to 150	Cc1ccc(C(=O)NC(Cc2ccc(C(F)(F)F)cc2)C(O)c2ccc(F)cc2)c2ccccc12 (racemic) [Example 2, N-(2-(4-fluorophenyl)-2-hydroxy-1-((4-(trifluoromethyl)phenyl)methyl)ethyl)-4-methyl-1-naphthalenecarboxamide]
155 to 179	O=C(NC(Cc1ccc(C(F)(F)F)cc1)C(O)c1ccc(F)cc1)c1ccc(F)cc1 (racemic) [Example 6, 4-fluoro-N-[2-(4-fluorophenyl)-2-hydroxy-1-[[4-(trifluoromethyl)phenyl]methyl]ethyl]benzamide]
174 to 176	COc1ccc(C(=O)NC(Cc2ccc(C(F)(F)F)cc2)C(O)c2ccc(F)cc2)cc1 (racemic) [Example 7, N-[2-(4-fluorophenyl)-2-hydroxy-1-[[4-(trifluoromethyl)phenyl]methyl]ethyl]-4-methoxybenzamide]
170 to 180	O=C(NC(Cc1ccc(C(F)(F)F)cc1)C(O)c1ccc(F)cc1)c1ccc(Cl)cc1 (racemic) [Example 9, 4-chloro-N-[2-(4-fluorophenyl)-2-hydroxy-1-[[4-(trifluoromethyl)phenyl]methyl]ethyl]benzamide]
133 to 134	O=C(NC(Cc1ccc(C(F)(F)F)cc1)C(O)c1ccc(F)cc1)c1ccccc1-c1ccccc1 (racemic) [Example 10, N-[2-(4-fluorophenyl)-2-hydroxy-1-[[4-(trifluoromethyl)phenyl]methyl]ethyl]-2-phenylbenzamide]
148 to 150	O=C(NC(Cc1ccc(C(F)(F)F)cc1)C(O)c1ccc(F)cc1)c1ccc2ccccc2c1 (racemic) [Example 14, N-[2-(4-fluorophenyl)-2-hydroxy-1-[[4-(trifluoromethyl)phenyl]methyl]ethyl]-2-naphthalenecarboxamide]
115 to 117	O=C(NC(Cc1ccc(C(F)(F)F)cc1)C(O)c1ccc(F)cc1)c1ccccc1F (racemic) [Example 18, 2-fluoro-N-[2-(4-fluorophenyl)-2-hydroxy-1-[[4-(trifluoromethyl)phenyl]methyl]ethyl]benzamide]
160 to 165	O=C(NC(Cc1ccc(C(F)(F)F)cc1)C(O)c1ccc(F)cc1)c1cccnc1 (racemic) [Example 21, N-[2-(4-fluorophenyl)-2-hydroxy-1-[[4-(trifluoromethyl)phenyl]methyl]ethyl]-3-pyridinecarboxamide]
186 to 187	CCOc1ccc2ccccc2c1C(=O)N[C@H](Cc1ccc(C(F)(F)F)cc1)[C@H](O)c1ccc(F)cc1 (racemic) [Example 25, 2-(ethyloxy)-N-((1RS,2RS)-2-(4-fluorophenyl)-2-hydroxy-1-((4-(trifluoromethyl)phenyl)methyl)ethyl)-1-naphthalenecarboxamide]
134 to 135	O=C(N[C@H](Cc1ccc(C(F)(F)F)cc1)[C@H](O)c1ccc(F)cc1)c1cccc2ccccc12 (racemic) [Example 26, N-((1RS,2RS)-2-(4-fluorophenyl)-2-hydroxy-1-((4-(trifluoromethyl)phenyl)methyl)ethyl)-1-naphthalenecarboxamide]
